In patent US8088763B2 (priority 2004, dated 2012):

Key:
5HT-uptake = target: T1, 5HT-uptake (Rattus norvegicus, UniProt P31652); test: biochemical; settings: for inhibition at 10 µM: read-out: 5HT-uptake [10 μM], % inhibition
T1 construct: synaptosomes were freshly isolated from areas of rats' brains

NA-uptake = NA-uptake (Rattus norvegicus, UniProt Q63380); test: biochemical; settings: for inhibition at 10 µM: read-out: NA-uptake [10 μM], % inhibition
NA-uptake, sequence (Q63380 1-617): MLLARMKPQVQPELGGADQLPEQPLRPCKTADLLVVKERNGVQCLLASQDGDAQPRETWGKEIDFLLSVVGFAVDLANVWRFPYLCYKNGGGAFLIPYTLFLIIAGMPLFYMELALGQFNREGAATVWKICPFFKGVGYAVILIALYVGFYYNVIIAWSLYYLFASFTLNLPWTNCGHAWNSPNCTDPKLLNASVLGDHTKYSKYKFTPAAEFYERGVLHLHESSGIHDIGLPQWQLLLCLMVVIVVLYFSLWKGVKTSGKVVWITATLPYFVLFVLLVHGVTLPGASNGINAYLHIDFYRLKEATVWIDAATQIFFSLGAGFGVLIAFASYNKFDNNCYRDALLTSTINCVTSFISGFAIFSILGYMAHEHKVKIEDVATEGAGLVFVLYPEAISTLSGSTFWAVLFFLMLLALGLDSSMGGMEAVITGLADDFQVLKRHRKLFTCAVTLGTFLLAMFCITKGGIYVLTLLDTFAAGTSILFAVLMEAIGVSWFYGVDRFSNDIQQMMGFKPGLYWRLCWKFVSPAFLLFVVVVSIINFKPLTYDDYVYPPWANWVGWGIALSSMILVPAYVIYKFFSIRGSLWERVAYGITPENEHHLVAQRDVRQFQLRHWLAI

T1 sequence (P31652 whole entry): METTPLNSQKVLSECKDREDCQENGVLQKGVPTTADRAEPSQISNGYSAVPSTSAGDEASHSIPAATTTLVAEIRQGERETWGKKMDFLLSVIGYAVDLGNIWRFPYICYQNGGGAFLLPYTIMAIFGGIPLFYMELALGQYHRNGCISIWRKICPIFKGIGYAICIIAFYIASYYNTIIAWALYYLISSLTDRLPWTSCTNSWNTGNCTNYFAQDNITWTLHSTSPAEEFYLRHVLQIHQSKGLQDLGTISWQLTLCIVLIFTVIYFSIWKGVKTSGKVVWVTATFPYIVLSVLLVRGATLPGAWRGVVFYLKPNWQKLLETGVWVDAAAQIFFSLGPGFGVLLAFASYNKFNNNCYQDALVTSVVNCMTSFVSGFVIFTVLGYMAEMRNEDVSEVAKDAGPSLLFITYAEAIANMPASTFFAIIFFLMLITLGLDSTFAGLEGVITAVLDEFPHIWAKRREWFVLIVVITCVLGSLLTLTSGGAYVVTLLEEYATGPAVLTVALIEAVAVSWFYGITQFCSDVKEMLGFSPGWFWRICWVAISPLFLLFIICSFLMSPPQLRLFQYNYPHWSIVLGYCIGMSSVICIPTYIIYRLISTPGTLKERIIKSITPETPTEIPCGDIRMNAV

**Q.** `Cc1cnc(C(=O)N2CCN(C(=O)CCC(=O)NC3CCC(Cc4cccc(Cl)c4)(N(C)C)CC3)CC2)cn1` (centres unmarked) [Example 33, N-[4-(3-chloro-benzyl)-4-dimethylamino-cyclohexyl]-4-[4-(5-methyl-pyrazin-2-carbonyl)-piperazin-1-yl]-4-oxo-butyramide] was tested. Which inhibition at 10 µM (5HT-uptake) did it give?
**A.** Its inhibition at 10 µM is 95%.

**Q.** What about the inhibition at 10 µM (NA-uptake) of the same compound?
**A.** Its inhibition at 10 µM is 99%.

**Q.** What does the source list for `CN(C)C1(Cc2ccc(Cl)cc2)CCC(NC(=O)CCC(=O)NCc2cccc3ccccc23)CC1` (centres unmarked) [Example 34, N-[4-(4-chloro-benzyl)-4-dimethylamino-cyclohexyl]-N′-naphthalen-1-ylmethyl-succinamide]?
**A.** inhibition at 10 µM (5HT-uptake): 97%; inhibition at 10 µM (NA-uptake): 87%

**Q.** `COc1ccc(CN2CCN(C(=O)CCC(=O)NC3CCC(Cc4cccc(C)c4)(N(C)C)CC3)CC2)cc1F` (centres unmarked) [Example 35, N-[4-dimethylamino-4-(3-methyl-benzyl)-cyclohexyl]-4-[4-(3-fluoro-4-methoxy-benzyl)-piperazin-1-yl]-4-oxo-butyramide] was tested. Which inhibition at 10 µM (5HT-uptake) did it give?
**A.** Its inhibition at 10 µM is 94%.

**Q.** And the inhibition at 10 µM (NA-uptake)?
**A.** Its inhibition at 10 µM is 95%.

**Q.** With `Cc1ccc(CC2(N(C)C)CCC(NC(=O)CCC(=O)N(C)CCc3c[nH]c4ccccc34)CC2)cc1` (centres unmarked) [Example 36, N-[4-dimethylamino-4-(4-methyl-benzyl)-cyclohexyl]-N′-[2-(1H-indol-3-yl)-ethyl]-N′-methyl-succinamide] as the compound, how does the inhibition at 10 µM (5HT-uptake) read?
**A.** The inhibition at 10 µM was 96%.

**Q.** What about the inhibition at 10 µM (NA-uptake) of the same compound?
**A.** Its inhibition at 10 µM is 93%.

**Q.** Which results are given for `CCOP(=O)(Cc1ccc(NC(=O)CCC(=O)NC2CCC(Cc3cccc(Cl)c3)(N(C)C)CC2)cc1)OCC` (centres unmarked) [Example 37, (4-{3-[4-(3-chloro-benzyl)-4-dimethylamino-cyclohexylcarbamoyl]-propionylamino}-benzyl)-phosphonic acid diethylester]?
**A.** inhibition at 10 µM (5HT-uptake): 95%; inhibition at 10 µM (NA-uptake): 100%

**Q.** Which results are given for `Cc1ccc(CC2(N(C)C)CCC(NC(=O)CCC(=O)N(C)CCc3ccccn3)CC2)cc1` (centres unmarked) [Example 38, N-[4-dimethylamino-4-(4-methyl-benzyl)-cyclohexyl]-N′-methyl-N′-(2-pyridin-2-yl-ethyl)-succinamide]?
**A.** inhibition at 10 µM (5HT-uptake): 95%; inhibition at 10 µM (NA-uptake): 79%

**Q.** With `CN(C)C1(Cc2cccc(Cl)c2)CCC(NC(=O)CCC(=O)N2CC=CCC2)CC1` (centres unmarked) [Example 39, N-[4-(3-chloro-benzyl)-4-dimethylamino-cyclohexyl]-4-(3,6-dihydro-2H-pyridin-1-yl)-4-oxo-butyramide] as the compound, how does the inhibition at 10 µM (5HT-uptake) read?
**A.** Its inhibition at 10 µM is 94%.

**Q.** And the inhibition at 10 µM (NA-uptake)?
**A.** Its inhibition at 10 µM is 90%.

**Q.** With `Cc1cnc(C(=O)N2CCN(C(=O)CCCC(=O)NC3CCC(Cc4ccccc4)(N(C)C)CC3)CC2)cn1` (centres unmarked) [Example 41, 5-[4-(5-methyl-pyrazin-2-carbonyl)-piperazin-1-yl]-5-oxo-valeric acid (4-benzyl-4-dimethylamino-cyclohexyl)-amide] as the compound, how does the inhibition at 10 µM (5HT-uptake) read?
**A.** Its inhibition at 10 µM is 92%.

**Q.** And the inhibition at 10 µM (NA-uptake)?
**A.** The inhibition at 10 µM was 90%.

**Q.** How did the inhibition at 10 µM (5HT-uptake) turn out when `C=CCN(C)C(=O)CCC(=O)NC1CCC(Cc2cccc(Cl)c2)(N(C)C)CC1` (centres unmarked) [Example 43, N-allyl-N′-[4-(3-chloro-benzyl)-4-dimethylamino-cyclohexyl]-N-methyl-succinamide] was run?
**A.** Its inhibition at 10 µM is 98%.

**Q.** What about the inhibition at 10 µM (NA-uptake) of the same compound?
**A.** Its inhibition at 10 µM is 96%.

**Q.** How did the “5HT-uptake [10 μM], % inhibition” value (5HT-uptake) turn out when `CN(C)C1(Cc2ccc(Cl)cc2)CCC(NC(=O)CCC(=O)NC2CCCC2)CC1` (centres unmarked) [Example 44, N-[4-(4-chloro-benzyl)-4-dimethylamino-cyclohexyl]-Nt-cyclopentyl-succinamide] was run?
**A.** Its value is 94%.

**Q.** And the “NA-uptake [10 μM], % inhibition” value (NA-uptake)?
**A.** The value was 84%.

**Q.** For `Cc1ccc(CC2(N(C)C)CCC(NC(=O)CCC(=O)NCC3CCCO3)CC2)cc1` (centres unmarked) [Example 45, N-[4-dimethylamino-4-(4-methyl-benzyl)-cyclohexyl]-N′-(tetrahydro-furan-2-ylmethyl)-succinamide], which inhibition at 10 µM (5HT-uptake) is on record?
**A.** The inhibition at 10 µM was 92%.

**Q.** What about the inhibition at 10 µM (NA-uptake) of the same compound?
**A.** Its inhibition at 10 µM is 77%.

**Q.** `CCOP(=O)(Cc1ccc(NC(=O)CCC(=O)NC2CCC(Cc3cccc(C)c3)(N(C)C)CC2)cc1)OCC` (centres unmarked) [Example 46, (4-{3-[4-dimethylamino-4-(3-methyl-benzyl)-cyclohexylcarbamoyl]-propionylamino}-benzyl)-phosphonic acid diethylester] was tested. Which inhibition at 10 µM (5HT-uptake) did it give?
**A.** Its inhibition at 10 µM is 92%.

**Q.** And the inhibition at 10 µM (NA-uptake)?
**A.** The inhibition at 10 µM was 89%.

**Q.** Which results are given for `COc1ccccc1N1CCN(C(=O)CCC(=O)NC2CCC(Cc3ccc(Cl)cc3)(N(C)C)CC2)CC1` (centres unmarked) [Example 47, N-[4-(4-chloro-benzyl)-4-dimethylamino-cyclohexyl]-4-[4-(2-methoxy-phenyl)-piperazin-1-yl]-4-oxo-butyramide]?
**A.** inhibition at 10 µM (5HT-uptake): 93%; inhibition at 10 µM (NA-uptake): 73%

**Q.** How did the inhibition at 10 µM (5HT-uptake) turn out when `COc1cccc(N2CCN(C(=O)CCC(=O)NC3CCC(Cc4cccc(C)c4)(N(C)C)CC3)CC2)c1` (centres unmarked) [Example 48, N-[4-dimethylamino-4-(3-methyl-benzyl)-cyclohexyl]-4-[4-(3-methoxy-phenyl)-piperazin-1-yl]-4-oxo-butyramide] was run?
**A.** The inhibition at 10 µM was 94%.

**Q.** And the inhibition at 10 µM (NA-uptake)?
**A.** The inhibition at 10 µM was 97%.

**Q.** What does the source list for `CN(C)C1(Cc2ccc(Cl)cc2)CCC(NC(=O)CCC(=O)NCc2cc(F)cc(F)c2)CC1` (centres unmarked) [Example 49, N-[4-(4-chloro-benzyl)-4-dimethylamino-cyclohexyl]-N′-(3,5-difluoro-benzyl)-succinamide]?
**A.** inhibition at 10 µM (5HT-uptake): 92%; inhibition at 10 µM (NA-uptake): 98%

**Q.** Which results are given for `Cc1ccccc1CNC(=O)CCC(=O)NC1CCC(Cc2ccc(Cl)cc2)(N(C)C)CC1` (centres unmarked) [Example 50, N-[4-(4-chloro-benzyl)-4-dimethylamino-cyclohexyl]-N′-(2-methyl-benzyl)-succinamide]?
**A.** inhibition at 10 µM (5HT-uptake): 92%; inhibition at 10 µM (NA-uptake): 89%

**Q.** For `Cc1ccc(CC2(N(C)C)CCC(NC(=O)CCC(=O)N3CCC(CNC(=O)C(F)(F)F)CC3)CC2)cc1` (centres unmarked) [Example 51, N-[4-dimethylamino-4-(4-methyl-benzyl)-cyclohexyl]-4-oxo-4-{4-[(2,2,2-trifluoro-acetylamino)-methyl]-piperidin-1-yl}-butyramide], which inhibition at 10 µM (5HT-uptake) is on record?
**A.** Its inhibition at 10 µM is 92%.

**Q.** And the inhibition at 10 µM (NA-uptake)?
**A.** The inhibition at 10 µM was 77%.

**Q.** Which results are given for `CN(C)C1(Cc2ccc(Cl)cc2)CCC(NC(=O)CCC(=O)NCCc2c[nH]c3ccccc23)CC1` (centres unmarked) [Example 52, N-[4-(4-chloro-benzyl)-4-dimethylamino-cyclohexyl]-N′-[2-(1H-indol-3-yl)-ethyl]-succinamide]?
**A.** inhibition at 10 µM (5HT-uptake): 96%; inhibition at 10 µM (NA-uptake): 88%

**Q.** Which results are given for `CN(CCc1c[nH]c2ccccc12)C(=O)CCC(=O)NC1CCC(Cc2cccc(Cl)c2)(N(C)C)CC1` (centres unmarked) [Example 53, N-[4-(3-chloro-benzyl)-4-dimethylamino-cyclohexyl]-N′-[2-(1H-indol-3-yl)-ethyl]-N′-methyl-succinamide]?
**A.** inhibition at 10 µM (5HT-uptake): 93%; inhibition at 10 µM (NA-uptake): 94%

**Q.** For `COc1cc(CN2CCN(C(=O)CCCC(=O)NC3CCC(Cc4ccccc4)(N(C)C)CC3)CC2)cc2c1OCO2` (centres unmarked) [Example 54], which “5HT-uptake [10 μM], % inhibition” value (5HT-uptake) is on record?
**A.** The value was 95%.

**Q.** What about the “NA-uptake [10 μM], % inhibition” value (NA-uptake) of the same compound?
**A.** The value was 90%.

**Q.** Which inhibition at 10 µM (5HT-uptake) does the source give for `Cc1cccc(N2CCN(C(=O)CCCC(=O)NC3CCC(Cc4ccccc4)(N(C)C)CC3)CC2)c1C` (centres unmarked) [Example 56, 5-[4-(2,3-dimethyl-phenyl)-piperazin-1-yl]-5-oxo-valeric acid (4-benzyl-4-dimethylamino-cyclohexyl)-amide] here?
**A.** The inhibition at 10 µM was 95%.

**Q.** And the inhibition at 10 µM (NA-uptake)?
**A.** Its inhibition at 10 µM is 96%.

**Q.** For `CN(CCc1c[nH]c2ccccc12)C(=O)CCC(=O)NC1CCC(Cc2ccc(Cl)cc2)(N(C)C)CC1` (centres unmarked) [Example 57, N-[4-(4-chloro-benzyl)-4-dimethylamino-cyclohexyl]-N′-[2-(1H-indol-3-yl)-ethyl]-N′-methyl-succinamide], which inhibition at 10 µM (5HT-uptake) is on record?
**A.** The inhibition at 10 µM was 93%.

**Q.** And the inhibition at 10 µM (NA-uptake)?
**A.** Its inhibition at 10 µM is 100%.
